In ChEMBL document CHEMBL1147794, “Synthesis and evaluation of two 18F-labeled imidazo[1,2-a]pyridine analogues as potential agents for imaging beta-amyloid in Alzheimer's disease” (Bioorg Med Chem Lett, 2006):
The source made the active and inactive calls. The calls are words filed in the database; no cut-off is given here.

Legend:
[1] = Lipophilicity, Log P of the compound; format: physicochemical; settings: octanol/water
Rhesus monkey [2] = test: Penetration into iv dosed rhesus monkey blood-brain barrier after 9 mins; format: functional, organism-based; settings: Macaca mulatta, tested as the 18F-labelled form
[3] = target: Amyloid-beta precursor protein (Homo sapiens, UniProt P05067); test: Displacement of [125I]IMPY from beta amyloid in human AD cortical tissue
Rhesus monkey [4] = test: Uptake in iv dosed rhesus monkey skull; format: functional, organism-based; settings: Macaca mulatta; tested as the 18F-labelled form

Amyloid-beta precursor protein, sequence (P05067 whole entry): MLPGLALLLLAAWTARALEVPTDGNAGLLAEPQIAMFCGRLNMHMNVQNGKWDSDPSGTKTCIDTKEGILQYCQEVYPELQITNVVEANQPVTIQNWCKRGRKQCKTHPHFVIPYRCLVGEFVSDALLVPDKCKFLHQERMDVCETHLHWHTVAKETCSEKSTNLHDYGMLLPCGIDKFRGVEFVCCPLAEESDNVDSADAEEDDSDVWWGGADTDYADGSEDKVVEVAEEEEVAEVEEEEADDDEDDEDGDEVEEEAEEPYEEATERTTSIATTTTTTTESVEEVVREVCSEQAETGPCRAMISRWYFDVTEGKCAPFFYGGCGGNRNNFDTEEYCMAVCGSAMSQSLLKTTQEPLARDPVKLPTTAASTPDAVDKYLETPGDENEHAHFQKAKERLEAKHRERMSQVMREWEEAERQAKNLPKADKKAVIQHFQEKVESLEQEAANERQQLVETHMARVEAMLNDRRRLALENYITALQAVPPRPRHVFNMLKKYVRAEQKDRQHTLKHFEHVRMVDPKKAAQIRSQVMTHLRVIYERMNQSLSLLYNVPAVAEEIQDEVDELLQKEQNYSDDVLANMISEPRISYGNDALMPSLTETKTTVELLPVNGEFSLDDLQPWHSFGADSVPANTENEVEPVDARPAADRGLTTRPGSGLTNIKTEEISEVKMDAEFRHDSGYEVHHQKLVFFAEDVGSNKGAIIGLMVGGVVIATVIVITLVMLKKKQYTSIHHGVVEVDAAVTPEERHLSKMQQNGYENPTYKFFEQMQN

logP [1] | Ki [3] [nM] | SMILES | Activity (Rhesus monkey [2]) | Activity (Rhesus monkey [4])
2.84 | 48.3 | CN(C)c1ccc(-c2cn3cc(CCCF)ccc3n2)cc1 | Active | inactive
3.58 |  | CN(C)c1ccc(-c2cn3cc(I)ccc3n2)cc1 |  | 
2.42 | 177 | CN(C)c1ccc(-c2cn3cc(CCF)ccc3n2)cc1 |  | 
